Assay results taken from patent publication US20230129258A1, “HETEROTANDEM BICYCLIC PEPTIDE COMPLEXES” (BicycleTx Limited, priority 2019, published 2023).
Values joined by “and” are separate entries in the source; they are usually repeats but may differ in a detail not shown here. Equal entries are not always repeated. Where two headings read alike, the source gives them in different places. Starred links: 1 amine or outer side, 2 acyl side, 3 side chain; linkers in the order of their positions; H or OH if unused. Positions of bridges follow the written chain, without caps; N, C: chain ends. Non-standard residues stand in square brackets, D forms with d. Chains are numbered I, II in the order given. X1 = O=C(CCOCCOCCOCCN(CCOCCOCCOCCn1cc(CCC(=O)[*:2])nn1)CCOCCOCCOCCn1cc(CCC(=O)[*:3])nn1)[*:1]; TATA = O=C(CC[*:1])N1CN(C(=O)CC[*:2])CN(C(=O)CC[*:3])C1; d1Nal = N[C@H](Cc1cccc2ccccc12)C(=O)O; Hyp = O=C(O)[C@@H]1C[C@@H](O)CN1; hArg = N=C(N)NCCCC[C@H](N)C(=O)O; tBuAla = CC(C)(C)C[C@H](N)C(=O)O; Nle = CCCC[C@H](N)C(=O)O

What was measured:
[1] = test system: human PBMCs; test: Human PBMC-tumor cell co-culture (cytokine stimulation) assay with Nectin-4-expressing tumor cells; assay type: cell-based
Protocol: Tumor cell lines were cultured according to suppliers recommended protocol. Frozen PBMCs from healthy human donors were thawed and washed one time in room temperature PBS, and then resuspended in R10 medium. 100 μl of PBMCs (1,000,000 PBMCs/ml) and 100 μl of tumor cells (100,000 tumor cells/ml) (Effector:Target cell ratio (E:T) 10:1) were plated in each well of a 96 well flat bottom plate for the co-culture assay. 100 ng/ml of soluble anti-CD3 mAb (clone OKT3) was added to the culture on day 0 to stimulate human PBMCs. Test, control compounds, or vehicle controls were diluted in R10 media and 50 μL was added to respective wells to bring the final volume per well to 250 μL. Plates were covered with a breathable film and incubated in a humidified chamber at 37° C. with 5% CO2 for […]. Supernatants were collected 48 hours after stimulation, and human IL-2 and IFN-γ were detected by Luminex. Briefly, the standards and samples were added to black 96 well plate. Microparticle cocktail (provided in Luminex kit, R&D Systems) was added and shaken for 2 hours at room temperature. The plate was washed 3 times using magnetic holder. Biotin cocktail was then added to the plate and shaken for 1 hour at RT. The plate was washed 3 times using magnetic holder. Streptavidin cocktail was added to the plate and shaken for 30 minutes at RT. The plates were washed 3 times using magnetic holder, resuspended in 100 μL of wash buffer, shaken for 2 minutes at RT, and read using the Luminex 2000. Raw data were analyzed using built-in Luminex software to generate standard curves and interpolate protein concentrations, all other data analyses and graphing were performed using Excel and Prism software. […]

[2] = molecular target: T1, human Nectin-4 (Homo sapiens, UniProt Q96NY8); test: SPR direct binding to biotinylated Nectin-4 extracellular domain, human
T1 sequence (Q96NY8 32-349 limits assumed): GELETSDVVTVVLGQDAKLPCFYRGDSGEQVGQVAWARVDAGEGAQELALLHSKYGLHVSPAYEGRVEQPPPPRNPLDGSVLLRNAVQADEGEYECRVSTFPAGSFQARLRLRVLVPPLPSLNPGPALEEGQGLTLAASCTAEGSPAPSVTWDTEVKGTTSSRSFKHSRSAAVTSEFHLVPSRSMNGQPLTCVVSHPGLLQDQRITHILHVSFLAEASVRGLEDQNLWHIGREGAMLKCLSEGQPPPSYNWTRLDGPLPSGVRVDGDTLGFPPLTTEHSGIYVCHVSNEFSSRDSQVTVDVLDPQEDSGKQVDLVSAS
Excerpt: The binding of BCY11863 to its primary target Nectin-4 and CD137 was characterized using surface plasmon resonance (SPR).

[3] = test system: MC38 tumors; test: Anti-tumor activity of BCY13272 in syngeneic MC38 tumor model with re-challenge; assay type: in vivo, C57BL/6J-hCD137 mice; settings: for complete responders: 6 doses, day 28
Protocol: 6-8 week old female C57BL/6J-hCD137 mice [B-hTNFRSF9(CD137) mice; Biocytogen] were implanted subcutaneously with 1×10^6 MC38 cells. Mice were randomized into treatment groups (n=6/cohort) when average tumor volumes reached around 80 mm^3 and were treated with vehicle (25 mM histidine, 10% sucrose, pH7) intravenously (IV), 8 mg/kg BCY13272, 0.9 mg/kg BCY13272 and 0.1 mg/kg BCY13272 IV. All treatments were given twice a week (BIW) for 6 doses in total. Tumor growth was monitored until Day 28 from treatment initiation. Complete responder animals (n=7) were followed until day 62 after treatment initiation and re-challenged with an implantation of 2×10^6 MC38 tumor cells and tumor growth was monitored for 28 days. In parallel, naïve age-matched control huCD137 C57Bl/6 mice (n=5) were implanted with 2×10^6 MC38 tumor cells monitored for 28 days.

| Molecule | EC50 ([1]; 4T1-D02 (mouse), 4 donors, read-out: IFNy (nM), EC50 of cytokine secretion) [nM] | EC50 ([1]; 4T1-D02 (mouse), 4 donors, read-out: IL-2 (nM), EC50 of cytokine secretion) [nM] | EC50 ([1]; 4T1-Parental (Nectin4-), read-out: IFNy (nM), EC50 of cytokine secretion) [nM] | EC50 ([1]; 4T1-Parental (Nectin4-), read-out: IL-2 (nM), EC50 of cytokine secretion) [nM] | EC50 ([1]; H322 (human), 3 donors, read-out: IFNy (nM), EC50 of cytokine secretion) [nM] | EC50 ([1]; H322 (human), 3 donors, read-out: IL-2 (nM), EC50 of cytokine secretion) [nM] | EC50 ([1]; HT1376 (human), 5 donors, read-out: IFNy (nM), EC50 of cytokine secretion) [nM] | EC50 ([1]; HT1376 (human), 5 donors, read-out: IL-2 (nM), EC50 of cytokine secretion) [nM] | EC50 ([1]; MC38 #13 (mouse), 4 donors, read-out: IFNy (nM), EC50 of cytokine secretion) [nM] | EC50 ([1]; MC38 #13 (mouse), 4 donors, read-out: IL-2 (nM), EC50 of cytokine secretion) [nM] | IL-2 and IFN-γ cytokine secretion ([1]; PBMC-4T1 (Nectin-4 engineered) co-culture, FIGS. 2A, 2B) | EC50 ([1]; T-47D (human), 3 donors, read-out: IFNy (nM), EC50 of cytokine secretion) [nM] | EC50 ([1]; T-47D (human), 3 donors, read-out: IL-2 (nM), EC50 of cytokine secretion) [nM] | Kd ([2]; KD, biotinylated ECD captured on streptavidin chip) | Kd ([2]; SPR KD Human (25° C.), Direct Binding, biotinylated Nectin-4 extracellular domain, 25° C.) [nM] | Kd ([2]; SPR KD Human (37° C.), Direct Binding, biotinylated Nectin-4 extracellular domain, 37° C.) [nM] | complete responders ([3]; 0.9 mg/kg IV BIW) | complete responders ([3]; 8 mg/kg IV BIW) | tumor regrowth after MC38 re-challenge of complete responders ([3]; re-challenge day 62, monitored 28 days) |
| --- | --- | --- | --- | --- | --- | --- | --- | --- | --- | --- | --- | --- | --- | --- | --- | --- | --- | --- | --- |
| CCCC[C@@H]1NC(=O)[C@H](Cc2ccc(O)cc2)NC(=O)[C@@H]2CCCN2C(=O)[C@H](CC(=O)O)NC(=O)[C@H](C)NC(=O)[C@H](Cc2ccccc2)NC(=O)[C@@H]2CSCCC(=O)N3CN(CN(C3)C(=O)CCSC[C@@H](C(=O)N[C@@H](C)C(N)=O)NC1=O)C(=O)CCSC[C@H](NC(C)=O)C(=O)N[C@@H](CC(C)(C)C)C(=O)N1CCC[C@H]1C(=O)N[C@@H](CCC(=O)O)C(=O)N[C@H](CCCCNC(=O)CCc1cn(CCOCCOCCOCCN(CCOCCOCCOCCC(=O)N[C@H]3CSCCC(=O)N4CN5CN(C4)C(=O)CCSC[C@H](NC(=O)[C@@H](CC(=O)O)NC(=O)[C@H](Cc4cccc6ccccc46)NC(=O)[C@@H]4CCCN4C3=O)C(=O)N[C@@H](CCSC)C(=O)N[C@@H](CCCCNC(=N)N)C(=O)N[C@@H](CC(=O)O)C(=O)N[C@@H](Cc3c[nH]c4ccccc34)C(=O)N[C@@H](CO)C(=O)N[C@@H]([C@@H](C)O)C(=O)N3CCC[C@H]3C(=O)N3C[C@H](O)C[C@H]3C(=O)N[C@@H](Cc3c[nH]c4ccccc34)C(=O)N[C@H](C(N)=O)CSCCC5=O)CCOCCOCCOCCn3cc(CCC(=O)NCCCC[C@H]4NC(=O)[C@H](CCC(=O)O)NC(=O)[C@@H]5CCCN5C(=O)[C@H](CC(C)(C)C)NC(=O)[C@@H](NC(C)=O)CSCCC(=O)N5CN6CN(C5)C(=O)CCSC[C@H](NC(=O)[C@H](Cc5ccc(O)cc5)NC(=O)[C@@H]5CCCN5C4=O)C(=O)N[C@@H](Cc4ccccc4)C(=O)N[C@@H](C)C(=O)N[C@@H](CC(=O)O)C(=O)N4CCC[C@H]4C(=O)N[C@@H](Cc4ccc(O)cc4)C(=O)N[C@@H](CCCC)C(=O)N[C@H](C(=O)N[C@@H](C)C(N)=O)CSCCC6=O)nn3)nn1)C(=O)N1CCC[C@H]1C(=O)N[C@@H](Cc1ccc(O)cc1)C(=O)N2 [BCY11863] | 0.04 ± 0.04 | 0.16 ± 0.22 | > 100 | > 100 | 0.85 ± 0.66 | 0.84 ± 0.15 | 0.23 ± 0.15 | 0.39 ± 0.29 | 0.17 ± 0.11 | 0.25 ± 0.08 | induces robust IL-2 and IFN-γ cytokine secretion | 0.08 ± 0.06 | 0.2 ± 0.07 | 5 to 27 nM and 4.1 nM | 5 ± 2.1 | 5.2 ± 1.1 |  |  |  |
| I: A[hArg]DC[Hyp]LVNPLCLEP[d1Nal]WTC-NH2 / II: Ac-C[tBuAla]PE[dK]PYCFADPY[Nle]CA-NH2 / III: Ac-C[tBuAla]PE[dK]PYCFADPY[Nle]CA-NH2 (linker I:4-I:11-I:18, II:1-II:8-II:15, III:1-III:8-III:15 via TATA; linker I:N-II:5-III:5 via X1) [BCY13272] |  |  |  |  |  |  |  |  |  |  |  |  |  |  |  |  | 2 out of 6 | 5 out of 6 | no tumor regrowth |
